The values below come from patent US20230263822A1, “MODULATION OF FACTOR 11 EXPRESSION” (Ionis Pharmaceuticals, Inc., priority 2008, published 2023).

In one series the test system is Factor 11 mRNA. Kind of series: Factor 11 mRNA in liver, FeCl3 induced venous thrombosis model vs warfarin (Example 11). In kind it is in vivo, BALB/c mice. As to conditions: FeCl3 induced VT model; ISIS 404071 1.25-40 mg/kg s.c. twice a week 3 weeks; warfarin 0.5-5 mg/kg daily 6 days. As for the experimental part:
(§1) Two control groups of BALB/c mice were treated with PBS, administered subcutaneously twice a week for 3 weeks. Two days after the last dose of PBS, mice in both groups were anesthetized with 150 mg/kg ketamine mixed with 10 mg/kg xylazine administered by intraperitoneal injection. Thrombus formation was induced with FeCl3 in all groups of mice except the first control group.
(§2) In mice undergoing FeCl3 treatment, thrombus formation was induced by applying a piece of filter paper (2×4 mm) pre-saturated with 10% FeCl3 solution directly on the vena cava. After 3 minutes of exposure, the filter paper was removed. Thirty minutes after the filter paper application, a fixed length of the vein containing the thrombus was dissected out for platelet analysis. Liver was collected for RNA analysis.
RNA was extracted from liver tissue for real-time PCR analysis of Factor 11.

For series [1], the system named is blood coagulation. As to the kind of experiment: PT and aPTT, combination with warfarin (Example 21). In kind it is in vivo, BALB/c mice. As for the experimental part: Plasma was collected from each group 5 days after the last dose was administered. […] In a final group of BALB/c mice, PBS was administered subcutaneously twice a week for three weeks, as a control. Plasma was collected 5 days after the last PBS treatment.
PT and aPTT values provided in Table 33 are reported as International Normalized Ratio (INR) values.

Series [2] deals with blood coagulation. Kind of series: PT and aPTT vs warfarin (Example 13). As to conditions: for aPTT INR / PT INR: PPP two days after final dose. In kind it is in vivo, BALB/c mice. As for the experimental part:
In a control group, BALB/c mice were treated with PBS, administered subcutaneously mice twice a week for 3 weeks.
Two days after the final dose was administered, PPP was collected and PT and aPTT assays were performed.
PT and aPTT values provided in Table 16 are reported as International Normalized Ratio (INR) values. […] This ratio was then raised to the power of the International Sensitivity Index (ISI) of the tissue factor used.

The nature of series [3]: Collagenase-induced intracerebral hemorrhage model: hemorrhage volume, neurologic deficit score, mortality (Example 25). As to conditions: ISIS oligonucleotides 40 mg/kg s.c., warfarin 2 mg/kg intraperitoneally, twice a week for two weeks. It is filed as in vivo, BALB/c mice. As for the experimental part:
In a first cohort, ISIS 404071 was administered subcutaneously to BALB/c mice twice a week for two weeks at a dose 40 mg/kg. […] In a third cohort, ISIS 421208 ([…], 8 mismatches to murine Factor 11, incorporated herein as SEQ ID NO: 14) was administered subcutaneously to BALB/c mice twice a week for two weeks at a dose 40 mg/kg. In a fourth cohort, PBS was administered to BALB/c mice twice a week for two weeks.
Two days after receiving their final dose, all mice in all cohorts were anesthetized with […] of avertin. Next, the mice were injected at −1 mm AP, 1 mm R ML, −4 mm DV from bregma flat skull with a 10 μL Hamilton syringe containing 0.075 U collagenase (150 U/mL). Collagenase was delivered over 5 minutes and the needle was kept in place for an additional 5 minutes to prevent reflux. The mice were then analyzed for hemorrhagic size, neurologic deficit score, and mortality.
Table 37 presents the hemorrhage volume detected in mice after collagenase treatment, Table 38 presents the neurologic deficit score of the mice, and Table 39 presents the mortality rate of the mice. Neurological deficit is measured by a standard scoring system where no deficiency is zero and severe deficit is five.

A short description of series [4]: Tail bleeding assay vs warfarin (Example 12). As for the experimental part:
A separate control group of BALB/c mice was treated with PBS, administered subcutaneously twice a week for 3 weeks.
Mice were anesthetized in the chamber with isoflurane and a small piece of tail (approximately 4 mm from the tip) was cut with sterile scissors. The tail cut was immediately placed in a 15 mL Falcon tube filled with approximately 10 mL of 0.9% NaCl buffer solution warmed to 37° C. The blood was collected over the course of 40 minutes. The saline filled tubes were weighed both before and after bleeding.

A further series concerns platelet factor-4 (PF-4). Kind of series: Thrombus formation by PF-4 real-time PCR, FeCl3 induced venous thrombosis model vs warfarin (Example 11). The settings on record: for PF-4 in vena cava, percentage as compared to PBS controls (thrombus formation): + FeCl3. In kind it is in vivo, BALB/c mice. As for the experimental part: as §1, §2
Real-time PCR quantification of platelet factor-4 (PF-4) was used to quantify platelets in the vena cava as a measure of thrombus formation.

Series [5] has as its system mesenteric vein thrombosis. Kind of series: Mesenteric vein thrombosis, intravital microscopy (Example 22). In kind it is in vivo. As to conditions: C57BL/6 mice, 50 mg/kg s.c. twice a week for three weeks, 10% FeCl3 on mesenteric vein. As for the experimental part:
In a first cohort, ISIS 404071 was administered subcutaneously to C57BL/6 mice twice a week for three weeks at a dose of 50 mg/kg. In a second cohort, a control oligonucleotide, ISIS 405277 ([…]; antisense oligonucleotide for Factor 2), incorporated herein as SEQ ID NO: 12 was administered subcutaneously to C57Bl/6 mice twice a week for three weeks at a dose of 50 mg/kg.
Blood was collected from the retro-orbital venous plexus of naïve C57BL/6 mice by puncture and collected in polypropylene tubes containing 300 μl of heparin (30 U/ml). Platelet rich plasma (PRP) was obtained by centrifugation at 1000 rpm for 5 min. The PRP was transferred to fresh tubes containing 2 μl of Prostaglandin I2 (PGI2) (2 μg/ml) and incubated at 37° C. for 5 min. After centrifugation at 2600 rpm, pellets were resuspended in 1 ml modified Tyrode's-HEPES buffer (137 mM NaCl, 0.3 mM Na2HPO4, 2 mM KCl, 12 mM NaHCO3, 5 mM HEPES, 5 mM glucose, 0.35% BSA, pH 7.2) containing 2 μl of PGI2 and incubated at 37° C. for 5 min. The suspended pellet was centrifuged at 2600 rpm for 5 min. To remove PGI2, the washing step was repeated twice and platelets were fluorescently labeled with calcein AM 2.5 μg/mL (Molecular Probes, Eugene, Oreg.) for 10 min at room temperature.
Fluorescently-labeled platelets were injected intravenously in ISIS 404071 treated and control oligonucleotide treated C57BL/6 mice. […] The exposed mesentery was kept moist throughout the experiment by periodic superfusion with warmed (37° C.) PBS. The mesentery was transluminated with a 12V, 100 W, DC stabilized source. Veins were visualized using a Zeiss (Germany) Axiovert 135 inverted microscope (Objective 32X) connected to an SVHS video recorder (AG-6730; Panasonic, Tokyo, Japan) using a CCD video camera (Hamamatsu Photonic Systems, Hamamatsu City, Japan). Centerline erythrocyte velocity (Vrbc) was measured using an optical Doppler velocimeter (Microcirculation Research Institute, Texas A&M College of Medicine, College Station, Tex.). Venular shear rate (τ) was calculated based on Poiseuille's Law for a newtonian fluid, τ=8(Vmean/Dv), where Dv is the diameter of the venule and Vmean is estimated from the measured Vrbc using the empirical correlation Vmean=Vrbc/1.6.
Mesenteric vein thrombosis was performed two days after the last antisense oligonucleotide injection. Thrombosis was induced by applying Whatman paper soaked in a 10% FeCl3 solution for 5 minutes on the mesenteric vein. The vein was monitored for 40 minutes, or until occlusion. The elapsed time before the first thrombus 30-50 μm in diameter and the elapsed time before blood stopped flowing for 30 seconds were observed.

The mark [6] stands for this setting: BALB/c mice, ISIS 404071 25 or 50 mg/kg, warfarin 2 mg/kg.
The mark [7] stands for this setting: Warfarin 2 mg/kg once daily for 5 days.
Setting [8] is: BALB/c mice, ISIS 404071 1.25-40 mg/kg, warfarin 0.5-5 mg/kg.
[9] abbreviates: Warfarin 0.5 mg/kg intraperitoneally daily for 6 days.
[10] abbreviates: Warfarin 1 mg/kg intraperitoneally daily for 6 days.
[11] abbreviates: Warfarin 2 mg/kg intraperitoneally daily for 6 days.
Where [12] appears, read: Warfarin 3 mg/kg intraperitoneally daily for 6 days.
Where [13] appears, read: Warfarin 4 mg/kg intraperitoneally daily for 6 days.
The mark [14] stands for this setting: Warfarin 5 mg/kg intraperitoneally daily for 6 days.

On to `CC(=O)CC(c1ccccc1)c1c(O)c2ccccc2oc1=O` (centres unmarked) [warfarin], for which the “Factor 11 mRNA in liver vs PBS control” value with Factor 11 mRNA is listed as “did not result in significant reduction of Factor 11”. The “PT” value in the series with blood coagulation [1] (setting [6]) is on record as “increase PT”; in the series with blood coagulation [2] (setting [8]) it was “significantly prolonged at every dosage”. In addition, the “aPTT” value with blood coagulation [1] (setting [6]) was “affected”; in the series with blood coagulation [2] (setting [8]), “prolonged, particularly at dosages of 1 mg/kg and higher”. For the same compound, the “PT INR” value in the series on blood coagulation [1] (setting [7]) is given as 21.33 INR; in the series on blood coagulation [2] (setting [10]), 2.03 INR; in the series on blood coagulation [2] (setting [11]), 2.77 INR; in the series on blood coagulation [2] (setting [12]), 22.76 INR; in the series with blood coagulation [2] (setting [13]), 6.74 INR; in the series with blood coagulation [2] (setting [14]), 9.20 INR. Further, the “aPTT INR” value was determined as 2.52 INR in the series with blood coagulation [1] (setting [7]); 1.10 INR in the series on blood coagulation [2] (setting [9]); 1.31 INR in the series on blood coagulation [2] (setting [10]); 1.54 INR in the series on blood coagulation [2] (setting [11]); 2.90 INR with blood coagulation [2] (setting [12]); 2.18 INR with blood coagulation [2] (setting [13]). In addition, the “aPTT INR” value with blood coagulation [2] (setting [14]) amounted to 2.29 INR. The “% mortality after collagenase treatment” value in series [3] was 80%. Also, in series [4] (BALB/c mice, compared to PBS treated mice), the “bleeding in tail bleeding assay” value is “did increase bleeding”. Besides, the “Blood (tail bleeding, collected over 40 minutes)” value in series [4] (setting [9]) turned out to be 0.07 g; in series [4] (setting [10]), 0.35 g; in series [4] (setting [11]) it was 0.39 g; in series [4] (setting [12]), 0.51 g; in series [4] (setting [13]) it was 0.52 g; in series [4] (setting [14]), 0.76 g. In the series with platelet factor-4 (PF-4) (FeCl3 induced VT model, vs PBS control), the “PF-4 in vena cava as measure of thrombus formation” value is “reduction of PF-4 in comparison to the PBS control for dosages of 2 mg/kg and higher”. The “PF-4 in vena cava, percentage as compared to PBS controls (thrombus formation)” value in the series with platelet factor-4 (PF-4) (setting [9]) is 128%; with platelet factor-4 (PF-4) (setting [10]), 124%; in the series on platelet factor-4 (PF-4) (setting [11]), 80%; with platelet factor-4 (PF-4) (setting [12]) it was 21%; in the series with platelet factor-4 (PF-4) (setting [13]), 12%; in the series on platelet factor-4 (PF-4) (setting [14]), 33%.

With “ISIS 405277: control oligonucleotide AAGGACCTACACTATGGAAT; antisense oligonucleotide for Factor 2 (listed as DNA, chemistry not given here) [reference compound]”, in series [5], the “time of occlusion (occlusive thrombi)” value came out at 19.3 ± 0.8 min and the “time of thrombus formation (30 μm in diameter)” value is 8.9 ± 0.6 min.
